The source of these data is US4853410A, “Hydroxyacetic acid derivatives for the treatment of diabetic complications” (Pfizer Inc., priority 1987, dated 1989).

The target of the assay is T1, aldose reductase enzyme (Homo sapiens, UniProt P15121).
T1 construct: partially purified aldose reductase enzyme obtained from human placenta; from tissue; host or cells: human placenta
In words: in vitro inhibition of aldose reductase enzyme activity (procedure of U.S. Pat. No. 3,821,383, based on Hayman et al.). It counts as biochemical. From the text:
The substrate employed is partially purified aldose reductase enzyme obtained from human placenta.

Molecules are shown by their SMILES. pIC50: −log10 of the molar value. Read-outs that look alike come from different tables or passages of the source.

`C[C@@H]1C[C@@](O)(CC(=O)O)c2cc([N+](=O)[O-])c(Cl)cc2O1` (relative stereo) [Example 82, 7-Chloro-6-nitro-c-4-hydroxy-r-2-methylchroman-4-acetic acid]: the pIC50 was ~7.29.

By inhibition is commonly meant the percentage by which the read-out fell short of the control. `C[C@@H]1C[C@@](O)(CC(=O)O)c2cc(Cl)c(Cl)cc2S1(=O)=O` (relative stereo) [Example 113, 6,7-Dichloro-c-4-hydroxy-r-2-methyl-3,4-dihydro-2H-1-thianaphthalene-4-acetic Acid 1,1-Dioxide]: the inhibition at 10 µM (at 10^-5 M, partially purified aldose reductase from human placenta, read-out: percent inhibition of enzyme activity) is 37%.

On to `C[C@@H]1C[C@@](O)(CC(=O)O)c2cc(Cl)ccc2O1` (relative stereo) [Example 15, 6-Chloro-c-4-hydroxy-r-2-methylchroman-4-acetic Acid], for which the pIC50 (read-out: IC50, inhibition concentration calculated to show 50% inhibition of enzyme activity, partially purified aldose reductase from human placenta) was ~6.07.
